# Assay results: US12083109B2, “Neurokinin antagonists and uses thereof” (California Institute of Technology, priority 2017, dated 2024)
# “Also recorded” adds a separate entry of the source.
# What was measured:
# Nk3R [1] = biological target: T1, Nk3R (Mus musculus, UniProt P47937); test: Shock reactivity (footshock) after tone test, osanetant; assay type: in vivo; parameters: from tissue; host or cells: Living mice (wild-type C57Bl6/N males, Charles River)
# T1 sequence (P47937 1-452): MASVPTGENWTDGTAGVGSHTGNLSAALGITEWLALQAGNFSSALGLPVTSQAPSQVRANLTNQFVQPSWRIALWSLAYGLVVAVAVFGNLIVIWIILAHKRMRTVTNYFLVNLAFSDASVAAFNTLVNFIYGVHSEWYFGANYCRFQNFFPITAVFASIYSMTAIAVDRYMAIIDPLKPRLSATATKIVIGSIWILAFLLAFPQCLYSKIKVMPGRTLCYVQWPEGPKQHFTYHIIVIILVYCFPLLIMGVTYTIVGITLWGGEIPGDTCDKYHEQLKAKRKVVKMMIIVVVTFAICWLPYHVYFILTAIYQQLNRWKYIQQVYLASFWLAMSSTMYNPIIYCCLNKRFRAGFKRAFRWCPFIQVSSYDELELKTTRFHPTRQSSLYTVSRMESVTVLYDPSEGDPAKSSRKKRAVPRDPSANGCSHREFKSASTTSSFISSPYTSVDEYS
# Procedure: (§1) The protocol for tone trace fear conditioning was performed as previously described (Cushman et al., 2014; incorporated by reference in its entirety) using fear conditioning boxes previously described in detail (Haubensak et al., 2010; Kunwar et al., 2015; incorporated by reference in their entirety). Briefly, mice were transported in squads of four on a white cart to a novel behavioral testing room containing 4 sound-attenuating fear-conditioning chambers (Med Associates). This “training context” was comprised of flat grid flooring (wired to a shock generator and scrambler for footshock delivery, Med Associates), houselights, and the presence of an internal fan for background noise. Chambers were sprayed with 70% Simple Green solution on the underlying chamber pan to generate a unique contextual scent and chambers were cleaned with 70% EtOH between squads. Trace fear conditioning consisted of a 3 minute baseline period followed by 3 tone-shock trials consisting of a 20 second tone conditional stimulus (CS; 75 dB, 2800 Hz), a 20 second trace interval and a 2 second footshock unconditional stimulus (US; 0.7 mA). The inter-trial interval (ITI) between trials was 60 seconds. Mice remained in the chambers an additional 60 seconds before being transported back to the vivarium. The following day, mice were transported in fresh cardboard boxes to a novel behavioral testing room consisting of 4 distinct fear-conditioning boxes to test for tone fear. The “test context” consisted of the houselights and fan turned off, uneven grid flooring, a 1% acetic acid scent and a black plastic insert used to generate a triangular roof. Testing was performed identical to training with the exception that shocks were omitted from test trials to allow for behavior assessment to the tone. A single shock was administered in the last minute of testing to assess activity burst responding to the shock. This allowed assessment of reactivity to the shock under our various manipulations performed during testing without disrupting fear acquisition by performing manipulations during training. All experimental manipulations and data shown herein were performed during the test phase of fear conditioning (training data not shown). Training and testing context were counterbalanced across mice. Freezing behavior during the baseline period as well as during each tone presentation (“during”) and trace interval (“post”) were assessed as previously described (Zelikowsky et al., 2014; incorporated by reference in its entirety) using automated near-infrared video tracking equipment and computer software (VideoFreeze, Med Associates). Shock reactivity (motion, arbitrary units) was measured during the 2 second shock US as well as the 3 seconds immediately following.
# Mice were administered the Nk3R antagonist osanetant (Axon Medchem, Axon 1533) either systemically or intra-brain region. Osanctant was dissolved in saline with 0.1% Tween 20 (vehicle). […] For microinfusions, guide cannulas were removed from mice and replaced with injector cannulas (Plastics One), which protruded 0.5 mm from the tip of the guide cannula. Injectors were attached to 5 μl Hamilton syringes with PE tubing (Plastics One) and mounted on a microinfusion pump (Harvard Apparatus) for controlled infusion of osanetant (0.3 μl vehicle with 375 ng dose per site injected over 6 minutes). […]
# Nk3R [2] = biological target: T1, Nk3R; test: Tone fear conditioning test (freezing to conditioned tone), osanetant; assay type: in vivo; parameters: from tissue; host or cells: Living mice (wild-type C57Bl6/N males, Charles River); settings: for SIS-induced persistent (post) freezing to fear-conditioned tone: SIS mice; for acute (and thereby persistent) freezing to conditioned threatening stimulus (tone): osanetant injection into CeA; for SIS-induced persistent freezing to conditioned tone: osanetant microinfusion into dBNSTa, 375 ng per site, 20 min before test
# Procedure: as §1
# Mice were administered the Nk3R antagonist osanetant (Axon Medchem, Axon 1533) either systemically or intra-brain region. Osanctant was dissolved in saline with 0.1% Tween 20 (vehicle). For systemic administration mice received an intraperitoneal (i.p.) injection (5 mg/kg) 20 minutes prior to behavioral testing. For microinfusions, guide cannulas were removed from mice and replaced with injector cannulas (Plastics One), which protruded 0.5 mm from the tip of the guide cannula. Injectors were attached to 5 μl Hamilton syringes with PE tubing (Plastics One) and mounted on a microinfusion pump (Harvard Apparatus) for controlled infusion of osanetant (0.3 μl vehicle with 375 ng dose per site injected over 6 minutes). For experiments using systemic administration of clozapine-N-oxide (CNO), CNO (Enzo Life Sciences-Biomol, BML-NS105-0005) was dissolved in saline (9 g/L NaCl) and injected (i.p.) at 5 mg/kg for hM4DREADD silencing or 2 mg/kg for hM3DREADD activation 20 minutes prior to behavioral testing. CNO was also administered chronically in drinking water (0.5 mg CNO/100 ml water).
# [3] = osanetant microinfusion into DMH
smiles,measurement,setting,value
"CC(=O)N(C)C1(c2ccccc2)CCN(CCC[C@]2(c3ccc(Cl)c(Cl)c3)CCCN(C(=O)c3ccccc3)C2)CC1 [osanetant, N-(1-{3-[(3R)-1-benzoyl-3-(3,4-dichlorophenyl)piperidin-3-yl]propyl}-4-phenylpiperidin-4-yl)-N-methylacetamide]",SIS-induced increased shock reactivity,"Nk3R [1]; SIS mice, osanetant 5 mg/kg i.p. 20 min before test",blocked
same,SIS-induced increase in shock reactivity,"Nk3R [1]; osanetant daily during two-week isolation, tested off-drug","a trend to protection; also recorded: reduced, but not significantly"
same,reactivity to footshock (SIS-enhanced),Nk3R [1]; osanetant injection into CeA,reduced; also recorded: blocked
same,responses to the footshock,Nk3R [1]; [3],had no effect
same,shock reactivity,Nk3R [1]; osanetant microinfusion into dBNSTa,no effect
same,SIS-induced persistent (post) freezing to fear-conditioned tone,Nk3R [2]; osanetant 5 mg/kg i.p. 20 min before test,blocked
same,SIS-induced persistent (post) freezing to fear-conditioned tone,"Nk3R [2]; osanetant 5 mg/kg i.p. 20 min before test, listed as Osanetant",attenuated
same,freezing during presentation of conditioned tone (acute),"Nk3R [2]; osanetant 5 mg/kg i.p. 20 min before test, between groups",no significant differences
same,acute (and thereby persistent) freezing to conditioned threatening stimulus (tone),Nk3R [2],reduced
same,acute (and thereby persistent) freezing to conditioned threatening stimulus (tone),Nk3R [2]; listed as Osanetant,selectively blocked
same,persistent responses to conditioned tone,Nk3R [2]; [3],had no effect
same,SIS-induced persistent freezing to conditioned tone,Nk3R [2],selectively inhibited
same,SIS-induced persistent freezing to conditioned tone,Nk3R [2]; listed as Osanetant,selectively blocked
